Data taken from ChEMBL document CHEMBL3785085, “Pharmacokinetics of single and multiple doses of phenytoin in man” (Eur J Clin Pharmacol, 1974).

Experiments:
[1] = system: Homo sapiens; assay: Anticonvulsant activity in po dose patient assessed as compound level in plasma required to decrease epileptic seizure; assay type: functional
[2] = system: Plasma; assay: Plasma concentration at steady state in healthy human volunteer (5 volunteers) at 2 mg/kg, po bid administered for 12 days by gas chromatographic method; assay type: ADME, organism-based; conditions: in vivo, 288 h
[3] = Half life during steady state in healthy human volunteer (5 volunteers) at 2 mg/kg, po bid administered for 12 days by gas chromatographic method; assay type: ADME, organism-based; conditions: in vivo
[4] = Apparent volume of distribution (area) in healthy human volunteer (5 volunteers) at 5 mg/kg, iv administered as single dose through infusion by gas chromatographic method; assay type: ADME, organism-based; conditions: in vivo, read-out: Vd(app)
[5] = Half life in healthy human volunteer (5 volunteers) at 5 mg/kg, po administered as single dose by gas chromatographic method; assay type: ADME, organism-based; conditions: in vivo
[6] = Half life in healthy human volunteer (5 volunteers) at 5 mg/kg, iv administered as single dose through infusion by gas chromatographic method; assay type: ADME, organism-based; conditions: in vivo
[7] = Drug uptake in healthy human volunteer (5 volunteers) at 5 mg/kg, iv administered as single dose through infusion after 0.5 hrs by gas chromatographic method; assay type: ADME, organism-based; conditions: in vivo, read-out: Drug uptake
[8] = Cmax in healthy human volunteer (5 volunteers) at 5 mg/kg, po administered as single dose by gas chromatographic method; assay type: ADME, organism-based; parameters: dose 5 mg/kg, route oral; conditions: in vivo
[9] = Half life at post steady state in healthy human volunteer (5 volunteers) at 2 mg/kg, po bid administered for 12 days by gas chromatographic method; assay type: ADME, organism-based; conditions: in vivo
[10] = Total plasma clearance in healthy human volunteer (5 volunteers) at 5 mg/kg, iv administered as single dose by gas chromatographic method; assay type: ADME, organism-based

Molecule `O=C1N=C([O-])NC1(c1ccccc1)c1ccccc1.[Na+]` [PHENYTOIN SODIUM] has an MEC [1] of 10 µg/mL, a Cpss [2] of 5.3 µg/mL and a half-life [3] of 21.3 h. For the same molecule, the Vd [4] was 0.52 L/kg, the half-life [5] was 16.6 h and the half-life [6] was 14.5 h. For the same molecule, the concentration at 0.5 h [7] was 8400 ng/mL, the Cmax [8] was 2600 ng/mL and the half-life [9] was 15.9 h. The clearance [10] was 0.367 mL/min/kg.
